One assay has as its target Beta5 (Homo sapiens, UniProt P20618+P28074). The assay can be described thus: Determination of Beta5 activity (fluorescence intensity assay, Suc-LLVY-AMC). It is filed as biochemical. The settings on record: for pIC50: purified human constitutive proteasome. Here is the method:
Determination of Beta5 Activity:
Measurement of Beta5 inhibition is performed in 384 well format based on fluorescence intensity assay.
(§1) Purified human constitutive proteasome (1.25 nM) and serial diluted compounds in DMSO (range of concentrations from 30 μM to 15 μM) or controls are incubated for 20 minutes or 120 minutes (long incubation) at 25° C. in assay buffer containing 50 mM Tris pH 7.4, 0.03% SDS, 1 mM EDTA and 1% DMSO. The reaction is initiated by the addition of the fluorogenic peptide substrate, Suc-LLVY-AMC (Bachem 1-1395), at a concentration of 40 μM. After 60 minutes of incubation at 37° C., fluorescence intensity is measured at λex=350 nm and λem=450 nm with a fluorescence reader (Perkin Elmer Envision reader or equivalent).
(§2) Unless indicated otherwise the results are obtained after incubation for 20 minutes.

Another assay addresses LMP7 (Homo sapiens, UniProt P20618+P28062). The assay can be described thus: Determination of LMP7 activity (fluorescence intensity assay, Suc-LLVY-AMC). The assay is classed as biochemical. To be noted: purified human immunoproteasome. As for the experimental part: Determination of LMP7 Activity:
Measurement of LMP7 inhibition is performed in 384 well format based on fluorescence intensity assay.
as §1, with “immunoproteasome (0.25” for “constitutive proteasome (1.25”, “pM)” for “μM)”
as §2

Molecules are shown by their SMILES. pIC50: −log10 of the molar value. Where only a bound is given, the exact number is not on record here.

One may read the pIC50 as −log10 of the IC50, conventionally taken in molar units. Read a low pIC50 as a high IC50.

Take `O=C(CCN1CCCCC1=O)N[C@@H](Cc1cccc2ccccc12)B(O)O` [Compound 11, [(1R)-2-(1-naphthyl)-1-[3-(2-oxo-1-piperidyl)propanoylamino]ethyl]-boronic acid]: the “Selectivity LMP7 vs Beta5” value at Beta5 (incubation for 20 minutes) is recorded as “+++ (30 ≤ Selectivity < 50)”. Besides, the figures for the pIC50 on Beta5 (incubation for 20 minutes) and against LMP7 (incubation for 20 minutes) were 5.30 to 6.30 and 6.30 to 7.30, respectively.
On the same counts, the results for `Cc1ccc(C[C@H](NC(=O)C2CCC(=O)N2c2ccccc2)B(O)O)c(C)c1` (stereo partly drawn) [Compound 36, [(1R)-2-(2,4-dimethylphenyl)-1-[(5-oxo-1-phenyl-pyrrolidine-2-carbonyl)amino]-ethyl]boronic acid] are “+++ (30 ≤ Selectivity < 50)”, 5.30 to 6.30 and 6.30 to 7.30.
`Cc1ccc(C[C@H](NC(=O)CN2CCCC2=O)B(O)O)cc1` [Compound 21, [(1R)-1-[[2-(2-oxopyrrolidin-1-yl)acetyl]amino]-2-(p-tolyl)ethyl]boronic acid]: at Beta5 (incubation for 20 minutes), the “Selectivity LMP7 vs Beta5” value is “++ (10 ≤ Selectivity < 30)” and the pIC50 was 5.30 to 6.30. This compound showed a pIC50 against LMP7 (incubation for 20 minutes) of 6.30 to 7.30.
For `O=C(CCN1CCCCCC1=O)N[C@@H](Cc1ccccc1)B(O)O` [Compound 13, [(1R)-1-[3-(2-oxoazepan-1-yl)propanoylamino]-2-phenyl-ethyl]boronic acid] the same measures were “++ (10 ≤ Selectivity < 30)”, 5.30 to 6.30 and 6.30 to 7.30.
For the compound `Cc1ccc(C[C@H](NC(=O)CCN2CCCC2=O)B(O)O)cc1` [Compound 4, [(1R)-1-[3-(2-oxopyrrolidin-1-yl)propanoylamino]-2-(p-tolyl)ethyl]-boronic acid], on Beta5 (incubation for 20 minutes), the “Selectivity LMP7 vs Beta5” value was “++ (10 ≤ Selectivity < 30)” and the pIC50 is 6.30 to 7.30. Moreover, at LMP7 (incubation for 20 minutes), the pIC50 was greater than 7.30.
With `Cc1ccc(C[C@H](NC(=O)CCN2CCCCC2=O)B(O)O)c(C)c1` [Compound 31, [(1R)-2-(2,4-dimethylphenyl)-1-[3-(2-oxo-1-piperidyl)propanoylamino]-ethyl]boronic acid], at Beta5 (incubation for 20 minutes), the “Selectivity LMP7 vs Beta5” value is recorded as “+++++ (Selectivity ≥ 70)” and the pIC50 is 5.30 to 6.30. On LMP7 (incubation for 20 minutes), this compound had a negative-log IC50 (pIC50) greater than 7.30.
Turning to `Cc1ccc(C[C@H](NC(=O)CCN2CCCCS2(=O)=O)B(O)O)c(C)c1` [Compound 32, [(1R)-2-(2,4-dimethylphenyl)-1-[3-(1,1-dioxothiazinan-2-yl)propanoylamino]ethyl]boronic acid], at Beta5 (incubation for 20 minutes), the “Selectivity LMP7 vs Beta5” value was “+++ (30 ≤ Selectivity < 50)” and the pIC50 was 5.30 to 6.30. This compound also had a pIC50 against LMP7 (incubation for 20 minutes) greater than 7.30.
On the same counts, the results for `O=C(CCN1CCN(c2ccccc2)C1=O)N[C@@H](Cc1ccc(F)cc1)B(O)O` [Compound 14, [(1R)-2-(4-fluorophenyl)-1-[3-(2-oxo-3-phenyl-imidazolidin-1-yl)propanoylamino]ethyl]boronic acid] are “++ (10 ≤ Selectivity < 30)”, 6.30 to 7.30 and greater than 7.30.
In the case of `O=C(CCN1CC(c2ccccc2)CC1=O)N[C@@H](Cc1ccccc1)B(O)O` (stereo partly drawn) [Compound 12, [(1R)-1-[3-(2-oxo-4-phenyl-pyrrolidin-1-yl)propanoylamino]-2-phenyl-ethyl]boronic acid], at Beta5 (incubation for 20 minutes), the “Selectivity LMP7 vs Beta5” value is reported as “++ (10 ≤ Selectivity < 30)” and the negative-log IC50 (pIC50) was 6.30 to 7.30. Further, the pIC50 at LMP7 (incubation for 20 minutes) is greater than 7.30.
For the compound `Cc1ccc(C[C@H](NC(=O)CCN2CCC(C)(C)C2=O)B(O)O)cc1` [Compound 17, [(1R)-1-[3-(3,3-dimethyl-2-oxo-pyrrolidin-1-yl)propanoylamino]-2-(p-tolyl)ethyl]boronic acid], the “Selectivity LMP7 vs Beta5” value at Beta5 (incubation for 20 minutes) is reported as “++ (10 ≤ Selectivity < 30)”. The values for the negative logarithm of the IC50 (pIC50) against Beta5 (incubation for 20 minutes) and against LMP7 (incubation for 20 minutes) were 6.30 to 7.30 and greater than 7.30, respectively.
For the compound `Cc1cccc2c(C[C@H](NC(=O)CCN3C(=O)CCC3(C)C)B(O)O)coc12` [Compound 38, [(1R)-1-[3-(2,2-dimethyl-5-oxo-pyrrolidin-1-yl)propanoylamino]-2-(7-methylbenzofuran-3-yl)ethyl]boronic acid], on Beta5 (long incubation (120 min)), the “Selectivity LMP7 vs Beta5” value is reported as “+++++ (Selectivity ≥ 70)” and the pIC50 was 5.30 to 6.30. Also, on LMP7 (long incubation (120 min)), the pIC50 is greater than 7.30.
In the case of `O=C(CCN1CCCC1=O)N[C@@H](Cc1cccc2ccccc12)B(O)O` [Compound 10, [(1R)-2-(1-naphthyl)-1-[3-(2-oxopyrrolidin-1-yl)propanoylamino]ethyl]-boronic acid], on Beta5 (incubation for 20 minutes), the “Selectivity LMP7 vs Beta5” value is on record as “++ (10 ≤ Selectivity < 30)” and the negative logarithm of the IC50 (pIC50) is 5.30 to 6.30. Besides, the pIC50 at LMP7 (incubation for 20 minutes) is 6.30 to 7.30.
Regarding `Cc1ccc(C[C@H](NC(=O)CCN2CCCCC2=O)B(O)O)cc1` [Compound 9, [(1R)-1-[3-(2-oxo-1-piperidyl)propanoylamino]-2-(p-tolyl)ethyl]boronic acid], at Beta5 (incubation for 20 minutes), the “Selectivity LMP7 vs Beta5” value is “++ (10 ≤ Selectivity < 30)” and the pIC50 is 5.30 to 6.30. Further, the pIC50 on LMP7 (incubation for 20 minutes) was greater than 7.30.
`Cc1ccc(C[C@H](NC(=O)CCN2CCN(c3ccccc3)C2=O)B(O)O)cc1` [Compound 15, [(1R)-1-[3-(2-oxo-3-phenyl-imidazolidin-1-yl)propanoylamino]-2-(p-tolyl)ethyl]boronic acid]: at Beta5 (incubation for 20 minutes), the “Selectivity LMP7 vs Beta5” value is “++ (10 ≤ Selectivity < 30)” and the pIC50 is 6.30 to 7.30. This compound also gave a pIC50 on LMP7 (incubation for 20 minutes) greater than 7.30.
With `CCc1cccc(C[C@H](NC(=O)CCCN2CCOC2=O)B(O)O)c1` [Compound 1, [(1R)-2-(3-ethylphenyl)-1-[4-(2-oxooxazolidin-3-yl)butanoylamino]-ethyl]boronic acid], at Beta5 (incubation for 20 minutes), the “Selectivity LMP7 vs Beta5” value is “++ (10 ≤ Selectivity < 30)” and the pIC50 was less than 5.30. Moreover, the pIC50 against LMP7 (incubation for 20 minutes) was 6.30 to 7.30.
Consider `O=C(CCN1CCCCC1=O)N[C@H](Cc1ccccc1)B(O)O` [Compound 3, [(1S)-1-[3-(2-oxo-1-piperidyl)propanoylamino]-2-phenyl-ethyl]boronic acid], for which the “Selectivity LMP7 vs Beta5” value at Beta5 (incubation for 20 minutes) is reported as “+++ (30 ≤ Selectivity < 50)”. For the same compound, the pIC50 is 5.30 to 6.30 at Beta5 (incubation for 20 minutes) and 6.30 to 7.30 at LMP7 (incubation for 20 minutes).
With `O=C(CCN1CCCOC1=O)N[C@@H](Cc1coc2ccccc12)B(O)O` [Compound 30, [(1R)-2-(benzofuran-3-yl)-1-[3-(2-oxo-1,3-oxazinan-3-yl)propanoylamino]ethyl]boronic acid], at Beta5 (incubation for 20 minutes), the “Selectivity LMP7 vs Beta5” value is listed as “+++ (30 ≤ Selectivity < 50)” and the pIC50 was 6.30 to 7.30. Also, the negative logarithm of the IC50 (pIC50) against LMP7 (incubation for 20 minutes) was greater than 7.30.
For `O=C(CCN1CCCC1=O)N[C@@H](C[C@@H]1COc2ccccc21)B(O)O` [Compound 39, [(1R)-2-[(3S)-2,3-dihydrobenzofuran-3-yl]-1-[3-(2-oxopyrrolidin-1-yl)propanoylamino]ethyl]boronic acid], at Beta5 (long incubation (120 min)), the “Selectivity LMP7 vs Beta5” value is “+++++ (Selectivity ≥ 70)” and the pIC50 was 5.30 to 6.30. On LMP7 (long incubation (120 min)), this compound had a pIC50 greater than 7.30.
As for `Cc1ccc(C[C@H](NC(=O)CCN2CCCCS2(=O)=O)B(O)O)cc1` [Compound 22, [(1R)-1-[3-(1,1-dioxothiazinan-2-yl)propanoylamino]-2-(p-tolyl)ethyl]-boronic acid], on Beta5 (incubation for 20 minutes), the “Selectivity LMP7 vs Beta5” value is listed as “++ (10 ≤ Selectivity < 30)” and the pIC50 is 6.30 to 7.30. The compound further had a pIC50 at LMP7 (incubation for 20 minutes) greater than 7.30.
Regarding `CCN1CCN(CCC(=O)N[C@@H](Cc2coc3ccccc23)B(O)O)C(=O)C1=O` [Compound 34, [(1R)-2-(benzofuran-3-yl)-1-[3-(4-ethyl-2,3-dioxo-piperazin-1-yl)propanoylamino]ethyl]boronic acid], on Beta5 (incubation for 20 minutes), the “Selectivity LMP7 vs Beta5” value was “++ (10 ≤ Selectivity < 30)”. Also, the negative logarithm of the IC50 (pIC50) at Beta5 (incubation for 20 minutes) was 6.30 to 7.30; against LMP7 (incubation for 20 minutes), greater than 7.30.
Regarding `O=C(CCN1CCOCC1=O)N[C@@H](Cc1coc2ccccc12)B(O)O` [Compound 28, [(1R)-2-(benzofuran-3-yl)-1-[3-(3-oxomorpholin-4-yl)propanoylamino]-ethyl]boronic acid], at Beta5 (incubation for 20 minutes), the “Selectivity LMP7 vs Beta5” value is recorded as “++ (10 ≤ Selectivity < 30)” and the pIC50 was 6.30 to 7.30. Further, the pIC50 at LMP7 (incubation for 20 minutes) was greater than 7.30.
For `O=C(CCN1CCCC1=O)N[C@@H](Cc1ccc2ccccc2c1)B(O)O` [Compound 6, [(1R)-2-(2-naphthyl)-1-[3-(2-oxopyrrolidin-1-yl)propanoylamino]-ethyl]boronic acid], on Beta5 (incubation for 20 minutes), the “Selectivity LMP7 vs Beta5” value was “++ (10 ≤ Selectivity < 30)” and the pIC50 was 6.30 to 7.30. On LMP7 (incubation for 20 minutes), this compound showed a pIC50 greater than 7.30.
As for `O=C(CN1C(=O)CSC1=O)N[C@@H](Cc1coc2ccccc12)B(O)O` [Compound 33, [(1R)-2-(benzofuran-3-yl)-1-[[2-(2,4-dioxothiazolidin-3-yl)acetyl]-amino]ethyl]boronic acid], at Beta5 (incubation for 20 minutes), the “Selectivity LMP7 vs Beta5” value is reported as “++ (10 ≤ Selectivity < 30)”. Besides, the pIC50 against Beta5 (incubation for 20 minutes) was 6.30 to 7.30; on LMP7 (incubation for 20 minutes), greater than 7.30.
For `CN1CCN(CCC(=O)N[C@@H](Cc2coc3ccccc23)B(O)O)C(=O)C1` [Compound 35, [(1R)-2-(benzofuran-3-yl)-1-[3-(4-methyl-2-oxo-piperazin-1-yl)propanoylamino]ethyl]boronic acid], on Beta5 (incubation for 20 minutes), the “Selectivity LMP7 vs Beta5” value is on record as “++ (10 ≤ Selectivity < 30)” and the negative-log IC50 (pIC50) is 6.30 to 7.30. This compound also gave a pIC50 at LMP7 (incubation for 20 minutes) greater than 7.30.

Values taken from patent publication US10640520B2, “Boronic acid derivatives” (MERCK PATENT GMBH, priority 2014, dated 2020).
